Measurements: US20010018422A1, “Dolastatin 15 derivatives” (BASF Aktiengesellschaft, priority 1999, published 2001)
pIC50: −log10 of the molar value.

Experiments:
[1] = system: tumor cells such as the HT-29 colon carcinoma or LX-1 lung tumor; assay: Cytotoxicity, microculture tetrazolium assay (MTT); format: cell-based; conditions: 48 hours incubation, T/C of 50%, cell line not given
Description: Cytotoxicity was measured using a standard methodology for adherent cell lines, such as the microculture tetrazolium assay (MTT). Details of this assay have been published (Alley, M. C. et al., Cancer Research 48: 589-601, 1988). Exponentially growing cultures of tumor cells such as the HT-29 colon carcinoma or LX-1 lung tumor were used to make microtiter plate cultures. Cells were seeded at 5000-20,000 cells per well in 96-well plates (in […] of media), and grown overnight at 37° C. Test compounds were added, in 10-fold dilutions varying from 10^−4 M to 10^−10 M. Cells were then incubated for 48 hours. To determine the number of viable cells in each well, the MTT dye was added ([…] of a 3 mg/mL solution of 3-(4,5-dimethylthiazol-2-yl)-2,5-diphenyltetrazolium bromide in saline). This mixture was incubated at 37° C. for 5 hours, and then […] of 25% SDS, pH 2, was added to each well. After an overnight incubation, the absorbance of each well at 550 nm was read using an ELISA reader. The values for the mean+/−SD of data from replicated wells were calculated, using the formula % T/C (% viable cells treated/control). The concentration of test compound which gives a T/C of 50% growth inhibition was designated as the IC50.

[2] = synthetic Dolastatin 15; cited from earlier work
[3] = system: National Cancer Institute's P388 lymphocytic leukemia (PS system) cell line; conditions: cited from earlier work

2-(Me2Val-Val-MeVal-Pro-NH)—C6H4—CO—CH3 [IV-1]
pIC50 [1]: < 6.00

Dolastatin 15
solubility in aqueous systems [2]: poor solubility
inhibition of growth of P388 cell line [3]: markedly inhibits the growth

CON(C)C(=O)c1ccccc1NC(=O)[C@@H]1CCCN1C(=O)[C@H](C(C)C)N(C)C(=O)C(NC(=O)[C@H](C(C)C)N(C)C)C(C)C (stereo partly drawn) [Compound I-60, (2)-(Me2Val-Val-MeVal-Pro-NH)—C6H4—CON(CH3)(OCH3)]
pIC50 [1]: 6.40

CNC(=O)c1cccc(C2CCCC2)c1NC(=O)[C@@H]1CCCN1C(=O)[C@H](C(C)C)N(C)C(=O)[C@@H](NC(=O)[C@H](C(C)C)N(C)C)C(C)C [Compound I-7, 2-(Me2ValVal-MeVal-ProNH)-3-cyclopentanyl-C6H3C(O)NHCH3]
pIC50 [1]: 6.40

CC(C)C(NC(=O)[C@H](C(C)C)N(C)C)C(=O)N(C)[C@H](C(=O)N1CCC[C@H]1C(=O)NC1CCCC1C(=O)NCc1ccccc1)C(C)C (stereo partly drawn) [VII-2, Me2-Val-Val-MeVal-Pro-[cis-2-aminocyclopentanecarboxylic acid]-NHBn]
pIC50 [1]: < 6.00
